Results reported in article PMC6222669, “The Inhibitory Effect of Flavonoid Aglycones on the Metabolic Activity of CYP3A4 Enzyme” (Molecules : A Journal of Synthetic Chemistry and Natural …, 2018).
Like-named read-outs stand apart in the source and are kept apart here. Values belong to the compound of their own block, whether it stands above or below them.

What was measured:
[1] = molecular target: T1, CYP3A4 (Homo sapiens, UniProt P08684); assay: Metabolism dependent inhibition of CYP3A4 (testosterone 6β-hydroxylation, preincubation with NADPH generating system); conditions: for activity at 15 min, 1 µM / inhibition at 15 min, 1 µM: human, pH 7.4, probe testosterone (200 µM; 6β-hydroxylation); for type of inhibition: concluded from metabolism dependent, time dependent and direct inhibition assays
T1 sequence (P08684 2-503 limits assumed): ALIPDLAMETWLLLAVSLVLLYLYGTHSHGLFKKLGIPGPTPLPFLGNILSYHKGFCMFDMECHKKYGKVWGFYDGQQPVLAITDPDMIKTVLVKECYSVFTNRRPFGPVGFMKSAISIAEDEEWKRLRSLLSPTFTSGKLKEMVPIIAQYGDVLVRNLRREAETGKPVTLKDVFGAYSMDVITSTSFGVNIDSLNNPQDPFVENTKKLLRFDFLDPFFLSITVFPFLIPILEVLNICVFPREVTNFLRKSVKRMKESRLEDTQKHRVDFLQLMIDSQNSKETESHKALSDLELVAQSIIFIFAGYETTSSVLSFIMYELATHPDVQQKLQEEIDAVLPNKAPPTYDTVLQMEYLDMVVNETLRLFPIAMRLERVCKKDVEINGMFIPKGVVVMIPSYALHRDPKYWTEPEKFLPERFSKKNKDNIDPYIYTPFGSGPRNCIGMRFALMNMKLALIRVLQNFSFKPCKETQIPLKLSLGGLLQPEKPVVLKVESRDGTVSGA

[2] = molecular target: T1, CYP3A4; assay: Time dependent inhibition of CYP3A4 (preincubation without NADPH); conditions: 1 µM flavonoid; for Residual CYP3A4 activity: time dependent inhibition assay, preincubation without NADPH; for time dependent inhibition observed or not: confirmed in direct inhibition assay
Description: (§1) Incubation mixture contained 5 pmol of the CYP3A4 enzyme.
(§2) If metabolism-dependent inhibition was determined, time dependent inhibition was assessed by preincubating flavonoids and enzymes, after which residual activity was determined by adding NADPH generating system along with substrate. In this instance, the direct inhibition was also tested without preincubation, i.e., NADPH generating system, was added to incubation mixture containing flavonoid and substrate.
(§3) All incubations were conducted in triplicate.

[3] = molecular target: T1, CYP3A4; assay: Direct inhibition of CYP3A4 (no preincubation)
Description: as §1, §2, §3

[4] = molecular target: T1, CYP3A4
[5] = molecular target: T1, CYP3A4; assay: in vitro; conditions: pH 7.4
[6] = tested on: CYP3A4; conditions: cited from earlier work
[7] = tested on: CYP3A4; conditions: cited from earlier work; remark: listed apart in the source
[8] = tested on: porcine cytochrome p450; conditions: cited from earlier work; for Ki: competitive, ref 61 (Ekstrand et al.), read-out: inhibition constant
[9] = tested on: CYP3A4; design: method as in ref 60 (Ding et al.); conditions: HepG2 cell line; ref 60 (Ding et al.); cited from earlier work
[10] = tested on: CYP3A4 induction; design: method as in ref 64 (Li et al.); conditions: through PXR, CAR and AhR; ref 64 (Li et al.); cited from earlier work
[11] = tested on: CYP3A4; design: method as in ref 65 (von Moltke et al.); conditions: ref 65 (von Moltke et al.); read-out: concentration giving 50% inhibition; cited from earlier work
[12] = molecular target: T1, CYP3A4; design: purchased Thermo Fisher Scientific (Waltham, MA, USA); host or cells: recombinant baculovirus system (baculosomes); method as in ref 54 (Obermeier et al.); conditions: nifedipine oxidation, human liver microsomes, uncompetitive; ref 54 (Obermeier et al.); read-out: inhibition constant; cited from earlier work
[13] = molecular target: T1, CYP3A4; design: purchased Thermo Fisher Scientific (Waltham, MA, USA); host or cells: recombinant baculovirus system (baculosomes); method as in ref 55 (Takanaga et al.); conditions: testosterone marker substrate; human liver microsomes and recombinant CYP3A4; ref 55 (Takanaga et al.); cited from earlier work

SMILES: O=c1c(O)c(-c2ccccc2)oc2ccc(O)cc12 [3,6-dihydroxyflav., 3,6-dihydroxyflavon]
activity at 15 min, 1 µM [1]: 100 ± 14%

SMILES: O=c1c(O)c(-c2ccccc2)oc2cc(O)ccc12 [3,7-dihydroxyflav., 3,7-dihydroxyflavon]
activity at 15 min, 1 µM [1]: 91 ± 27%

SMILES: O=c1cc(-c2ccccc2)oc2ccc(O)cc12 [6-hydroxyflavone]
activity at 15 min, 1 µM [1]: 83 ± 14%

SMILES: O=c1cc(-c2ccccc2)oc2cc(O)ccc12 [7-hydroxyflavone]
activity at 15 min, 1 µM [1]: 78 ± 14%

SMILES: COc1ccc(-c2cc(=O)c3c(O)cc(O)cc3o2)cc1 [Acacetin]
Residual CYP3A4 activity [2]: 57 ± 10%
residual enzyme activity ([3]; 1 µM flavonoid, direct inhibition assay, no preincubation): 46 ± 6%
type of inhibition [1]: combined irreversible and reversible inhibition
activity at 15 min, 1 µM [1]: 5 ± 4%
inhibition at 15 min, 1 µM [1]: 95%

SMILES: COc1cc(OC)c2c(=O)cc(-c3ccccc3)oc2c1 [Chrysin-dimethylether]
time dependent inhibition observed or not [2]: No time dependent inhibition
type of inhibition [1]: pure irreversible inhibition
activity at 15 min, 1 µM [1]: 61 ± 21%

SMILES: O=c1cc(-c2ccccc2)oc2cc(O)cc(O)c12 [Chrysin]
effect on 1′-hydroxilation of midazolam [7]: inhibition of CYP3A4 activity was not observed
Residual CYP3A4 activity [2]: 45 ± 3%
type of inhibition [4]: combined irreversible and reversible inhibition
residual enzyme activity ([3]; human, 30 min, 1 µM, pH 7.4): 54 ± 23%
activity at 15 min, 1 µM [5]: 17 ± 3%

SMILES: O=c1cc(-c2ccccc2)oc2ccccc12 [Flavone]
effect on 1′-hydroxilation of midazolam [7]: stimulate, rather than inhibit
activity at 15 min, 1 µM [1]: 81 ± 16%

SMILES: O=c1c(O)c(-c2ccccc2)oc2cc(O)cc(O)c12 [Galangin]
activity at 15 min, 1 µM [1]: 48 ± 24%

SMILES: O=c1c(-c2ccc(O)cc2)coc2cc(O)cc(O)c12 [Genistein]
activity at 15 min, 1 µM [1]: 72 ± 24%

SMILES: COc1ccc([C@@H]2CC(=O)c3c(O)cc(O)cc3O2)cc1O [Hesperetin]
activity at 15 min, 1 µM [5]: 49 ± 19%

SMILES: COc1cc(-c2oc3cc(O)cc(O)c3c(=O)c2O)ccc1O [Isohramnetin, Isorhamnetin]
time dependent inhibition observed or not [2]: No time dependent inhibition
Ki ([8]; female pigs): 94 µM
Ki ([8]; male pigs): 71 µM
competitive inhibition at low concentration ([8]; under 16 µM concentration): no competitive inhibition was observed
type of inhibition [1]: pure irreversible inhibition
activity at 15 min, 1 µM [1]: 73 ± 6%
change in activity of CYP3A4 [9]: did not observe change in activity

SMILES: O=c1c(O)c(-c2ccc(O)cc2)oc2cc(O)cc(O)c12 [Kaempferol]
activity at 15 min, 1 µM [1]: 101 ± 14%

SMILES: O=c1cc(-c2ccc(O)c(O)c2)oc2cc(O)cc(O)c12 [Luteolin]
activity at 15 min, 1 µM [1]: 112 ± 31%

SMILES: O=c1c(O)c(-c2cc(O)c(O)c(O)c2)oc2cc(O)cc(O)c12 [Myricetin]
activity at 15 min, 1 µM [1]: 133 ± 35%

SMILES: O=C1C[C@@H](c2ccc(O)cc2)Oc2cc(O)cc(O)c21 [Naringenin]
activity at 15 min, 1 µM [1]: 65 ± 24%

SMILES: COc1cc(O)c2c(c1)OC(c1ccccc1)CC2=O (stereo not drawn) [Pinocembrin-7-methylether]
activity at 15 min, 1 µM [1]: 83 ± 2%

SMILES: O=C1C[C@@H](c2ccccc2)Oc2cc(O)cc(O)c21 [Pinocembrin]
time dependent inhibition observed or not [2]: No time dependent inhibition
type of inhibition [1]: pure irreversible inhibition
activity at 15 min, 1 µM [1]: 50 ± 15%
inhibition at 15 min, 1 µM [1]: 50%

SMILES: COc1cc(O)c2c(=O)c(-c3ccc(O)cc3)coc2c1 [Prunetin]
activity at 15 min, 1 µM [1]: 74 ± 14%

Second part, led by results:

Residual CYP3A4 activity [2]: 34 ± 10%
type of inhibition [4]: reversible inhibition
residual enzyme activity ([3]; human, 30 min, 1 µM, pH 7.4): 35 ± 18%
activity at 15 min, 1 µM [5]: 24 ± 3%
inhibition at 15 min, 1 µM [5]: 76%
SMILES: O=c1cc(-c2ccc(O)cc2)oc2cc(O)cc(O)c12 [Apigenin]

activity at 15 min, 1 µM [1]: 122 ± 8%
SMILES: O=c1c(O)c(-c2ccc(O)cc2O)oc2cc(O)cc(O)c12 [Morin]

activity at 15 min, 1 µM [1]: 126 ± 10%
SMILES: O=c1c(O)c(-c2ccc(O)c(O)c2)oc2cc(O)cc(O)c12 [Quercetin]

activity at 15 min, 1 µM [1]: 117 ± 84%
SMILES: COc1cc(O)c2c(=O)c(O)c(-c3ccc(O)c(O)c3)oc2c1 [Rhamnetin]

activity at 15 min, 1 µM [5]: 94 ± 45%
SMILES: COc1cc(O)c2c(c1)O[C@H](c1ccc(O)cc1)CC2=O [Sakuranetin]

activity at 15 min, 1 µM [1]: 195 ± 29%
SMILES: COc1ccc(-c2oc3cc(O)cc(O)c3c(=O)c2O)cc1O [Tamarixetin]
influence on CYP3A4 induction [10]: no influence
IC50 [11]: < 10 µM

time dependent inhibition observed or not [2]: No time dependent inhibition
type of inhibition [4]: pure irreversible inhibition
activity at 15 min, 1 µM [5]: 42 ± 3%
SMILES: COc1ccc(-c2cc(=O)c3c(OC)c(OC)c(OC)c(OC)c3o2)cc1 [Tangeretin]
effect on 1′-hydroxilation of midazolam [7]: stimulate, rather than inhibit
Ki [12]: 72 µM
influence on CYP3A4 activity [13]: no influence

activity at 15 min, 1 µM [1]: 102 ± 15%
SMILES: COc1cc(O)c2c(=O)cc(-c3ccccc3)oc2c1 [Techtocrysin]
